Results taken from patent publication US20150210641A1, “NOVEL CYTOCHROME P450 INHIBITORS AND THEIR METHOD OF USE” (CORTENDO AB (PUBL), priority 2014, published 2015).

Key:
Type in all cases: cell-based
recombinant CYP-17 = biological target: T1, recombinant CYP-17 (Homo sapiens, UniProt P05093); test: Cyp17 assay: 3H-acetic acid release from [21-3H] 17α-hydroxyl-Pregnenolone in AD293 cells; conditions: AD293 cells stably over-expressing recombinant CYP-17; eight concentrations 10 μM to 4.5 nM
T1 construct: expressed in transfected cells
T1 sequence (P05093 1-508): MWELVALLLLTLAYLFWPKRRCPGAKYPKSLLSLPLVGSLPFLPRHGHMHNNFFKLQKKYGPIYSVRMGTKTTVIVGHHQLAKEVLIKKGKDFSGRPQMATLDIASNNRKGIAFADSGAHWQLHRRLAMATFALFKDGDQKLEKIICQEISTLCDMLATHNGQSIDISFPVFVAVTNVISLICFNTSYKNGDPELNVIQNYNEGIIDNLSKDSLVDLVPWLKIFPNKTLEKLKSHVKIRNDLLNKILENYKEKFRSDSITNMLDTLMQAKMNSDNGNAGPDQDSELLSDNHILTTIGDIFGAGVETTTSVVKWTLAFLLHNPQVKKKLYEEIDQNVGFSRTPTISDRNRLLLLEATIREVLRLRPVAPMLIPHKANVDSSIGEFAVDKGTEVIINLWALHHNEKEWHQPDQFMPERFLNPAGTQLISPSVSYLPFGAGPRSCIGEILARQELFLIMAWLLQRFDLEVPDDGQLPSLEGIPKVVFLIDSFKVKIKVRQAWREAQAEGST
Method: Cyp17 assay protocol: AD293 cells that stably over-express recombinant CYP-17 were seeded in 96 well plates coated with poly D-lysine (15,000 cell per well) and incubated at 37° C. for 24 hours in Dulbecco's Modified Eagle Medium (DMEM) with Fetal Bovine Serum (FBS) that is stripped of hormones by charcoal treatment. The media is then removed, the cells are washed once with Phosphate buffer saline solution, and 50 μL Dulbecco's Modified Eagle Medium (DMEM) with Fetal Bovine Serum (FBS) that is stripped of hormones by charcoal treatment is added. Compounds of the disclosure are then added to the wells in eight concentration spanning 10 μM to 4.5 nM, and the plates are incubated for an additional 60 minutes at 37° C. [21-^3H] 17α-hydroxyl-Pregnenolone is then added (50 nCi per well, 31.25 nM) and the plates are incubated for an additional 4 hours at 37° C. The media is then collected, 200 μL of chloroform is added, and the mixture is shaken for 1 hour. The aqueous layer is then separated and analyzed for the presence of ^3H-acetic acid using a Perkin Elmer Topcount NXT to determine IC50s of the compounds of the disclosure.

recombinant CYP-11 = biological target: T2, recombinant CYP-11 (Homo sapiens, UniProt P15538); test: Cyp11 assay: cortisol formation from 11-deoxycortisol in AD293 cells, LC/MS; conditions: AD293 cells stably over-expressing recombinant CYP-11; eight concentrations 10 μM to 4.5 nM
T2 construct: expressed in transfected cells
T2 sequence (P15538 25-503): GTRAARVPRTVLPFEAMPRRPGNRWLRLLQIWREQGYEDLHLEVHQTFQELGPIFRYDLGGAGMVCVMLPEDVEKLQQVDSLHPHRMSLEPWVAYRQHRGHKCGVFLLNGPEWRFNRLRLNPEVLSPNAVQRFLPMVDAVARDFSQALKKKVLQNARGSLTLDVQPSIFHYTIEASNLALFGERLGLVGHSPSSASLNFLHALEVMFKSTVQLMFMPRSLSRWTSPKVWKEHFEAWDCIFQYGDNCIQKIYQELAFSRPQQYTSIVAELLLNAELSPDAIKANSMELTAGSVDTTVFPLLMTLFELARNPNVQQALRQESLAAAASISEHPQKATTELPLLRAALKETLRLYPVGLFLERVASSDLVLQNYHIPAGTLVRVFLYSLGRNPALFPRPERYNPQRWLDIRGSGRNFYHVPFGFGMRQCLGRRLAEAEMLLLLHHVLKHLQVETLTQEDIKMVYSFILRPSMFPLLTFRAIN
Method: Cyp11 assay protocol: AD293 cells that stably over-express recombinant CYP-11 were seeded in 96 well plates coated with poly D-lysine (15,000 cell per well) and incubated at 37° C. for 24 hours in Dulbecco's Modified Eagle Medium (DMEM) with Fetal Bovine Serum (FBS) that is stripped of hormones by charcoal treatment. The media is then removed, the cells are washed once with Phosphate buffer saline solution, and 50 μL Dulbecco's Modified Eagle Medium (DMEM) with Fetal Bovine Serum (FBS) that is stripped of hormones by charcoal treatment is added. Compounds of the disclosure are then added to the wells in eight concentration spanning 10 μM to 4.5 nM, and the plates are incubated for an additional 60 minutes at 37° C. 11-deoxycortisol is then added ([…]) and the plates are incubated for an additional 12 hours at 37° C. After incubation, 50 uL of the supernatant (medium) is transferred into a fresh plate and 150 uL of an acetonitrile solution containing 200 ng/ml of Telmisartan is added. The sample is mixed and then placed in a centrifuge at 2000 rpm for 5 minutes. 100 uL of the supernatant is transferred into a fresh 96 well deep well plate, 100 uL of 1:1 methanol: water was added, the solution was mixed and then analyzed by LC/MS for the presence of cortisol using an Agilent 1200 RRLC/ABSCIEX API4000 LC-MS or Shimadzu Prominance/ABSCIEX API4000 LC-MS to determine IC50s of the compounds of the disclosure.

recombinant CYP-21 = biological target: T3, recombinant CYP-21 (Homo sapiens, UniProt P08686); test: Cyp21 assay: 11-deoxycortisol formation from 17-OH Progesterone in AD293 cells, LC/MS; conditions: AD293 cells stably over-expressing recombinant CYP-21; eight concentrations 10 μM to 4.5 nM
T3 construct: expressed in transfected cells
T3 sequence (P08686 1-495): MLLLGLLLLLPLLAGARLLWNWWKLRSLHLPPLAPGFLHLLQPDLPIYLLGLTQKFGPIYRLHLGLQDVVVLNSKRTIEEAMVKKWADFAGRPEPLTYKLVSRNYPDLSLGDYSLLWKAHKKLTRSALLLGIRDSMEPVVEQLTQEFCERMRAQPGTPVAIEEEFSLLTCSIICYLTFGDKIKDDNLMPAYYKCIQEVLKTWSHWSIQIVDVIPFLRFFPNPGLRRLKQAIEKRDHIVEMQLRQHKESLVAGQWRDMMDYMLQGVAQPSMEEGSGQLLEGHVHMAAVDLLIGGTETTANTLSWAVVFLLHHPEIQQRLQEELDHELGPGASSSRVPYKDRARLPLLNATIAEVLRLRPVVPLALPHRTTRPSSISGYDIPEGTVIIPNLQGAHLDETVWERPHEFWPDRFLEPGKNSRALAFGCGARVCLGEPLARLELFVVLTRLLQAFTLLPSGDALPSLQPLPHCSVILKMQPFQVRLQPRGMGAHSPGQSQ
Method: Cyp21 assay protocol: AD293 cells that stably over-express recombinant CYP-21 were seeded in 96 well plates coated with poly D-lysine (10,000 cell per well) and incubated at 37° C. for 24 hours in Dulbecco's Modified Eagle Medium (DMEM) with Fetal Bovine Serum (FBS) that is stripped of hormones by charcoal treatment. The media is then removed, the cells are washed once with Phosphate buffer saline solution, and 50 μL Dulbecco's Modified Eagle Medium (DMEM) with Fetal Bovine Serum (FBS) that is stripped of hormones by charcoal treatment is added. Compounds of the disclosure are then added to the wells in eight concentration spanning 10 μM to 4.5 nM, and the plates are incubated for an additional 60 minutes at 37° C. 17-OH Progesterone is then added ([…]) and the plates are incubated for an additional 45 minutes at 37° C. After incubation, 50 uL of the supernatant (medium) is transferred into a fresh plate and 150 uL of an acetonitrile solution containing 200 ng/ml of Telmisartan is added. The sample is mixed and then placed in a centrifuge at 2000 rpm for 5 minutes.

SMILES	IC50 (recombinant CYP-17) [nM]	IC50 (recombinant CYP-11) [nM]	IC50 (recombinant CYP-21) [nM]
COc1cc(F)ccc1-c1ccc(C(NCCNC(=O)OC(C)(C)C)c2ccncc2)cc1 (stereo not drawn) [Entry 25, tert-butyl(2-(((4′-fluoro-2′-methoxy-[1,1′-biphenyl]-4-yl)(pyridin-4-yl)methyl)amino)ethyl)carbamate]	31	4200	4000
COc1cc(F)ccc1-c1ccc(C(NCCN)c2ccncc2)cc1 (stereo not drawn) [Entry 26, N1-((4′-fluoro-2′-methoxy-[1,1′-biphenyl]-4-yl)(pyridin-4-yl)methyl)ethane-1,2-diamine]	120	≥ 10000	≥ 10000
COc1cccc(-c2ccc(C(c3ccncc3)N3CCCCC3)cc2)c1 (stereo not drawn) [Entry 31, 4-((3′-methoxy-[1,1′-biphenyl]-4-yl)(piperidin-1-yl)methyl)pyridine]	27	≥ 10000	2400
COc1cccc(-c2ccc(C(c3ccncc3)N3CCNCC3)cc2)c1 (stereo not drawn) [Entry 32, 1-((3′-methoxy-[1,1′-biphenyl]-4-yl)(pyridin-4-yl)methyl)piperazine]	1170	≥ 10000	≥ 10000
COc1cc(F)ccc1-c1ccc(C(OC)c2ccncc2)cc1 (stereo not drawn) [Entry 33, 4-((4′-fluoro-2′-methoxy-[1,1′-biphenyl]-4-yl)(methoxy)methyl)pyridine]	≥ 10000	≥ 10000	524
COc1cccc(-c2ccc(C(OC)c3ccncc3)cc2)c1 (stereo not drawn) [Entry 34, 4-(methoxy(3′-methoxy-[1,1′-biphenyl]-4-yl)methyl)pyridine]	510	480	620

Results, then the compound that gave them:

IC50 (recombinant CYP-17) [nM]	IC50 (recombinant CYP-11) [nM]	IC50 (recombinant CYP-21) [nM]	SMILES
180	≥ 10000	≥ 10000	COc1cc(F)ccc1-c1ccc(C(c2ccncc2)N2CCN(c3ccccc3)CC2)cc1 (stereo not drawn) [Entry 22, 1-((4′-fluoro-2′-methoxy-[1,1′-biphenyl]-4-yl)(pyridin-4-yl)methyl)-4-phenylpiperazine]
43	≥ 10000	≥ 10000	COc1cc(F)ccc1-c1ccc(C(c2ccncc2)N2CCN(c3ccccn3)CC2)cc1 (stereo not drawn) [Entry 23, 1-((4′-fluoro-2′-methoxy-[1,1′-biphenyl]-4-yl)(pyridin-4-yl)methyl)-4-(pyridin-2-yl)piperazine]
192	≥ 10000	≥ 10000	COc1cc(F)ccc1-c1ccc(C(c2ccncc2)N2CCN(c3ccccc3C#N)CC2)cc1 (stereo not drawn) [Entry 24, 2-(4-((4′-fluoro-2′-methoxy-[1,1′-biphenyl]-4-yl)(pyridin-4-yl)methyl)piperazin-1-yl)benzonitrile]
22	≥ 10000	≥ 10000	COc1cc(F)ccc1-c1ccc(C(c2ccncc2)N2CCN(C(C)=O)CC2)cc1 (stereo not drawn) [Entry 27, 1-(4-((4′-fluoro-2′-methoxy-[1,1′-biphenyl]-4-yl)(pyridin-4-yl)methyl)piperazin-l-yl)ethanone]
117	≥ 10000	≥ 10000	CCN1CCN(C(c2ccncc2)c2ccc(-c3ccc(F)cc3OC)cc2)CC1 (stereo not drawn) [Entry 28, 1-ethyl-4-((4′-fluoro-2′-methoxy-[1,1′-biphenyl]-4-yl)(pyridin-4-yl)methyl)piperazine]
12	≥ 10000	4000	COc1cc(F)ccc1-c1ccc(C(c2ccncc2)N2CCC(O)CC2)cc1 (stereo not drawn) [Entry 29, 1-((4′-fluoro-2′-methoxy-[1,1′-biphenyl]-4-yl)(pyridin-4-yl)methyl)piperidin-4-ol]
1000	≥ 10000	≥ 10000	COc1cc(F)ccc1-c1ccc(C(c2ccncc2)N2CCNCC2)cc1 (stereo not drawn) [Entry 30, 1-((4′-fluoro-2′-methoxy-[1,1′-biphenyl]-4-yl)(pyridin-4-yl)methyl)piperazine]
